Source: patent US6352976B1, “Selective inhibitors of MMP-12” (Aventis Pharmaceuticals Inc., priority 1998, dated 2002)

Molecular target: T1, MMP-12 (macrophage metalloelastase) (Homo sapiens, UniProt P39900)
T1 construct: made in house
Experiment: Determination of the inhibition constant (Ki) for MMP-12, fluorogenic substrate
Assay type: biochemical
Conditions: compared to their N-methylamide derivatives (Examples 6 and 7); from Ki values of Table 2
Protocol: MMP-12 (EC3.4.24.65) was cloned, expressed and purified according to Shapiro, S. D. et al., J Biol. Chem. 268, 23824-23829 (1993). […] Aliquots of MMP-12 were stored at −70° C.
The potency of inhibitors of MMP-12 was measured using either quartz cuvettes or microtiter plates. The activity of MMP-12 was measured using a fluorogenic substrate, Mca-Pro-Leu-Gly-Leu-Dpa-Ala-Arg-NH2 SEQ ID NO1, Knight, C. G. et al., FEBS Lett. 296,263-266 (1992), at 25° C. in an assay buffer containing 50 mM Tris, pH 7.6, 0.2 M sodium chloride, 50 mM calcium chloride, and 0.02% Brij-35. The increase in fluorescence due to cleavage of Gly-Leu peptide bond by MMP-12 was monitored with a Perkin-Elmer LS50B Fluorimeter (λex 328 nm, λem 393 nm, excitation slit 2.5, emission slit 10) for the cuvette assay and with a Molecular Devices Fmax fluorescence plate reader (λex 320 nm, λem 405 nm) for the microtiter plate assay. Substrate and inhibitor stock solutions were made in N,N-dimethylformamide (DMF) and 0.1% HCl-DMF, respectively.
Ki values were determined using the cuvette method by preparing a series of intermediate inhibitors solutions in 0.1% HCl-DMF and mixing the inhibitor with substrate (final concentration 2 μM) in a quartz cuvette containing 2 ml of assay buffer. MMP-12 was added to start the reaction at a concentration of 2 nM and progress curves were generated. For routine measurement of a Ki value for a reversible competitive inhibitor, the initial rates in the presence of at least four inhibitor concentrations (two concentrations above and two concentrations below the Ki) were measured [S]=2 μM (<<Km) and [MMP-12]=2 nM. Under these conditions, the measured Ki,app is close to the true Ki.
Ki values were determined using the microtiter plate method in a manner similar to that described for the cuvette method with some modifications. Four different inhibitor concentrations (50 μl in assay buffer) of each compound were added to separate wells of a microtiter plate and substrate was added (100 μl) to get a final concentration of […]. MMP-12 was added to a final concentration of 2 nM (50 μl) to start the reaction. Cleavage of substrate was recorded every 30 seconds for 30 minutes and progress curves were generated.
The Ki for a competitive inhibitor was calculated using: V0/Vi=(1+[I]/Ki,app) and Ki=Ki,app/(1+[S]/Km), where V0 is the initial rate in the absence of inhibitor, Vi is the initial rate in the presence of inhibitor at the concentration of [I], [S] is the substrate concentration, and Km is the Michaelis constant. If slow binding is observed (i.e. if the approach to the binding equilibrium is slow), the final steady-state rate rather than the initial rate is taken as Vi.

T1 sequence (P39900 106-263 limits assumed): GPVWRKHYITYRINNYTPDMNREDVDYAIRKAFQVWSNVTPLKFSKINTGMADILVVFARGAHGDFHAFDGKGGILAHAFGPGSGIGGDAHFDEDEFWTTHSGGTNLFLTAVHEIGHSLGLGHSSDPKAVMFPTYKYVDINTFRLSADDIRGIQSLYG

Row | SMILES | selectivity for MMP-12 over MMP-1, MMP-2, and MMP-3
1 | CCCC(S)C(=O)N[C@@H](CCc1ccccc1)C(=O)N[C@@H](Cc1ccccc1)C(=O)O (some centres unmarked) [Example 1, 2-Mercapto-pentanoyl-(L)-homo-phenylalanyl-(L)-phenylalanine] | selective for MMP-12 over MMP-1, MMP-2, and MMP-3
2 | CC(C)[C@H](S)C(=O)N[C@@H](CCc1ccccc1)C(=O)N[C@@H](Cc1ccccc1)C(=O)O [Example 2, (S)-2-Mercapto-3-methylbutyroyl-(L)-homo-phenylalanyl-(L)-phenylalanine] | selective for MMP-12 over MMP-1, MMP-2, and MMP-3
